Read-outs that look alike come from different tables or passages of the source.
Columns and labels:
hERG channel = biological target: T1, hERG channel (Homo sapiens, UniProt Q12809); assay: Determination of the effect on the hERG channel in CHO cells (whole-cell patch clamp); assay type: cell-based; conditions: CHO cells stably expressing hERG, room temperature, read-out: IC50 value [µM] for hERG inhibition
T1 construct: expressed in transfected cells
Method: Determination of the effect on the hERG channel in CHO cells
An inhibition of the hERG (human Ether-a-go-go-Related Gene) potassium channel is unwanted because it can lead to dangerous arrhythmias. The effect of compounds of the formula I on the cloned human cardiac hERG channel was evaluated in an in vitro model using a whole-cell patch-clamping technique. CHO (Chinese hamster ovary) cells stably expressing hERG, the potassium channel underlying IKr currents in human hearts, were grown in HAM's F-12 media supplemented with 10 % fetal bovine serum, 1 x penicillin/streptomycin and 500 µg/ml G418 (Invitrogen, Carlsbad, CA, USA) in an atmosphere of 95 % air and 5 % carbon dioxide. Cells used for patch-clamping were seeded on glass or plastic coverslips 12 to 36 hours before use. hERG channel currents were recorded at room temperature using the whole-cell configuration of the patch clamp technique with an Axopatch 200B amplifier (Axon Instruments, Foster City, CA, USA). Briefly, electrodes (3 to 6 MΩ resistance) were fashioned from TW150F glass capillary tubes (World Precision Instruments, Sarasota, FL, USA) and filled with pipette solution (containing 120 mM potassium aspartate, 20 mM potassium chloride, 4 mM adenosine triphosphate disodium salt, 5 mM HEPES, 1 mM magnesium chloride; pH adjusted to 7.2 with potassium hydroxide). hERG currents were initiated by a positive voltage pulse (20 mV) followed by a negative pulse (-40 mV) and were recorded for off-line analyses. Once hERG current from a cell perfused with external solution (containing 130 mM sodium chloride, 5 mM potassium chloride, 2.8 mM sodium acetate, 1 mM magnesium chloride, 10 mM HEPES, 10 mM glucose, 1 mM calcium chloride; pH adjusted to 7.4 with sodium hydroxide) without the test compound, i.e. control solution, was stabilized, the cell was perfused with external solution containing the test compound at specific concentrations. For each concentration from each cell, peak amplitude of the steady-state hERG tail current at -40 mV was measured in picoAmpere (pA). The peak amplitude in pA for each concentration (up to a maximum concentration of 10 µM) was compared with that for the control solution from the same cell and expressed as percent value of the control. From the percent values at multiple concentrations, IC50 values for inhibition of hERG can be determined.

[1] = tested on: atrium of the anesthetized pig; assay: Investigation of the refractory period and the left-atrial vulnerability in the anesthetized pig; assay type: in vivo; conditions: Sus scrofa, iv; for inhibition in vivo at 0.3 mg/kg / change in vivo at 0.3 mg/kg: 0.3 mg/kg i.v.
Method: Investigation of the refractory period and the left-atrial vulnerability in the pig
The compounds were tested for prolongation of the refractory period and antiarrhythmic activity on the atrium of the anesthetized pig as described in Knobloch K. et al., Naunyn-Schmiedeberg's Arch. Pharmacol. 2002, 366, 482-487. Here the anti-arrhythmic action relates to the inhibition of the occurrence of episodes of atrial arrhythmias which are induced by a prematurely placed extra-stimulus (S2) in the left atrium (= left-atrial vulnerability). The prolongation of the refractory period (refractoriness) is expressed as the increase in percent of the value of the refractory period 15 min after the end of administration of the test compound vs. the basal value before administration. Mean values of the prolongation of the refractory period are shown from three rates (150/min, 200/min and 250/min). The values for the inhibition of left atrial vulnerability (inhibition of episodes of arrhythmias) in percent refer to three measurements (three time points) before administration of the test compound vs. at least three measurements during the first hour after administration.
In Table 16, the action of compounds of the formula I from the examples above on the refractory period of the left atrium and their antiarrhythmic activity in the anesthetized pig after intravenous (i.v.) administration of the described dose is shown.

[2] = infusion over 1 h, first hour after administration vs. before
[3] = 0.25 h, infusion over 1 h, 15 min after end of administration vs. basal value, mean of three rates (150/min, 200/min, 250/min), read-out: % Prolongation of left atrial refractory period
[4] = 0.25 h, bolus injection, 15 min after end of administration vs. basal value, mean of three rates (150/min, 200/min, 250/min), read-out: % Prolongation of left atrial refractory period
[5] = 1 h, bolus injection, first hour after administration vs. before

T1 sequence (Q12809 whole entry): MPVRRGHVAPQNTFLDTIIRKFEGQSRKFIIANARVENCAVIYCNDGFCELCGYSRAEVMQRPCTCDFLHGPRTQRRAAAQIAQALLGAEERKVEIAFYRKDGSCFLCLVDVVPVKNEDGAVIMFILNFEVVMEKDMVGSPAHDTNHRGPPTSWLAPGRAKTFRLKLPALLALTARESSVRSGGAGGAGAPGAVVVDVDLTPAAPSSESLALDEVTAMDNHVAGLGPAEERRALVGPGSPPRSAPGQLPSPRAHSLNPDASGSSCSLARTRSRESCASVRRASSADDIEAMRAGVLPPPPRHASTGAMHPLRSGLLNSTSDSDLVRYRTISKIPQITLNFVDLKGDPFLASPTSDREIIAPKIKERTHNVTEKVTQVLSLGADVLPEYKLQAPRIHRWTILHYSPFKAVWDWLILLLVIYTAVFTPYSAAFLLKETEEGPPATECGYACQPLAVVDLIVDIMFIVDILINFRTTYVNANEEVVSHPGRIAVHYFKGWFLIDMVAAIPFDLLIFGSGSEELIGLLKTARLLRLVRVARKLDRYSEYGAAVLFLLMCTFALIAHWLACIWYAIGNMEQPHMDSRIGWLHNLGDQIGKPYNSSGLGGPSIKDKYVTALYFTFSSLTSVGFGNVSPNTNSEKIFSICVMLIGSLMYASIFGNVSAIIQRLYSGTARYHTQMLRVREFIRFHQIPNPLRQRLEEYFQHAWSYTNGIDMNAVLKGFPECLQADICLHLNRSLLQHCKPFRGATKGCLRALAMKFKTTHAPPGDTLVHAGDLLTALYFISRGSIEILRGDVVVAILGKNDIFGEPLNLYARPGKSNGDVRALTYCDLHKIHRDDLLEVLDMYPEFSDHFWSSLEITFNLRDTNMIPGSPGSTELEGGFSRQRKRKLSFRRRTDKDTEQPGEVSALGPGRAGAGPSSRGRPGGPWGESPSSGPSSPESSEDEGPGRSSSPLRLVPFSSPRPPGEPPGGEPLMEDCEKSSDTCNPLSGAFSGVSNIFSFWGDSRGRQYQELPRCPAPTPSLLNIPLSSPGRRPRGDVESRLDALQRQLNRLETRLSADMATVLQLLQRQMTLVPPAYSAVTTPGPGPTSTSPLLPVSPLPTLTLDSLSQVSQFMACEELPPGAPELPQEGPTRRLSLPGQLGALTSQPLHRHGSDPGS

SMILES	IC50 (hERG channel) [µM]	change in vivo at 0.3 mg/kg [1, 4] [%]	inhibition in vivo at 0.3 mg/kg [1, 5] [%]	other results
CC[C@@H](NC(=O)c1cc(C(=O)N[C@H](C)c2ccc(F)cc2)n2c1COCC2)c1ccc(C(F)(F)F)cc1 [16eb, 3,4-Dihydro-1H-pyrrolo[2,1-c][1,4]oxazine-6,8-dicarboxylic acid 6-{[(R)-1-(4-fluoro-phenyl)-ethyl]-amide} 8-{[(R)-1-(4-trifluoromethyl-phenyl)-propyl]-amide}]	> 1	–	–	–
CC[C@@H](NC(=O)c1cc(C(=O)N2CCC[C@@H]2C)n2c1COCC2)c1ccccc1 [16a, 6-((S)-2-Methyl-pyrrolidine-1-carbonyl)-3,4-dihydro-1H-pyrrolo[2,1-c][1,4]oxazine-8-carboxylic acid ((R)-1-phenyl-propyl)-amide]	> 10	–	–	inhibition in vivo at 0.3 mg/kg [1, 2]: 91%; change in vivo at 0.3 mg/kg [1, 3]: 40%
CC[C@@H](NC(=O)c1cc(C(=O)N2CCC[C@@H]2C(F)(F)F)n2c1COCC2)c1ccc(C(F)(F)F)nc1 [16o, 6-((R)-2-Trifluoromethyl-pyrrolidine-1-carbonyl)-3,4-dihydro-1H-pyrrolo[2,1-c][1,4]oxazine-8-carboxylic acid [(R)-1-(6-trifluoromethyl-pyridin-3-yl)-propyl]-amide]	–	45	71	–
CC[C@@H](NC(=O)c1cc(C(=O)N[C@H](C)c2ccc(F)cc2)n2c1COCC2)c1ccc(C(F)(F)F)nc1 [16g, 3,4-Dihydro-1H-pyrrolo[2,1-c][1,4]oxazine-6,8-dicarboxylic acid 6-{[(R)-1-(4-fluorophenyl)-ethyl]-amide}8-{[(R)-1-(6-trifluoromethyl-pyridin-3-yl)-propyl]-amide}]	> 10	–	–	–
CC[C@@H](NC(=O)c1cc(C(=O)N2CCC[C@@H]2C)n2c1COCC2)c1ccc(C(F)(F)F)nc1 [16e, 6-((S)-2-methyl-pyrrolidine-1-carbonyl)-3,4-dihydro-1H-pyrrolo[2,1-c][1,4]oxazine-8-carboxylic acid [(R)-1-(6-trifluoromethyl-pyridin-3-yl)-propyl]-amide]	> 10	–	–	inhibition in vivo at 0.3 mg/kg [1, 2]: 84%; change in vivo at 0.3 mg/kg [1, 3]: 38%
CC[C@@H](NC(=O)c1cc(C(=O)N2CCC[C@@H]2C)n2c1COCC2)c1cnc(OC)c(Cl)c1 [16b, 6-((S)-2-Methyl-pyrrolidine-1-carbonyl)-3,4-dihydro-1H-pyrrolo[2,1-c][1,4]oxazine-8-carboxylic acid [(R)-1-(5-chloro-6-methoxy-pyridin-3-yl)-propyl]-amide]	> 10	21	91	–
CC[C@@H](NC(=O)c1cc(C(=O)N2CCC[C@@H]2C)n2c1COCC2)c1ccc(C(F)(F)F)cc1 [16f, 6-((S)-2-Methyl-pyrrolidine-1-carbonyl)-3,4-dihydro-1H-pyrrolo[2,1-c][1,4]oxazine-8-carboxylic acid [(R)-1-(4-trifluoromethyl-phenyl)-propyl]-amide]	–	–	–	change in vivo at 1 mg/kg ([1]; 0.25 h, 1.0 mg/kg i.v., bolus injection, 15 min after end of administration vs. basal value, mean of three rates (150/min, 200/min, 250/min), read-out: % Prolongation of left atrial refractory period): 19%; inhibition in vivo at 1 mg/kg ([1]; 1 h, 1.0 mg/kg i.v., bolus injection, first hour after administration vs. before): 73%
CC[C@@H](NC(=O)c1cc(C(=O)N2CCC[C@@H]2C)n2c1COCC2)c1ccc(C(F)(F)F)c(Cl)c1 [16c, 6-((S)-2-Methyl-pyrrolidine-1-carbonyl)-3,4-dihydro-1H-pyrrolo[2,1-c][1,4]oxazine-8-carboxylic acid [(R)-1-(3-chloro-4-trifluoromethyl-phenyl)-propyl]-amide]	> 10	–	–	change in vivo at 0.03 mg/kg ([1]; 0.25 h, 0.03 mg/kg i.v., bolus injection, 15 min after end of administration vs. basal value, mean of three rates (150/min, 200/min, 250/min), read-out: % Prolongation of left atrial refractory period): 12%; inhibition in vivo at 0.03 mg/kg ([1]; 1 h, 0.03 mg/kg i.v., bolus injection, first hour after administration vs. before): 65%
CC[C@@H](NC(=O)c1cc(C(=O)N2CCC[C@@H]2C)n2c1COCC2)c1ccc(Cl)c(Cl)c1 [16ci, 6-((S)-2-Methyl-pyrrolidine-1-carbonyl)-3,4-dihydro-1H-pyrrolo[2,1-c][1,4]oxazine-8-carboxylic acid [(R)-1-(3,4-dichloro-phenyl)-propyl]-amide]	~10	–	–	–
CC[C@@H](NC(=O)c1cc(C(=O)N2CCC[C@@H]2C)n2c1COCC2)c1ccc(C#N)c(Cl)c1 [16d, 6-((S)-2-Methyl-pyrrolidine-1-carbonyl)-3,4-dihydro-1H-pyrrolo[2,1-c][1,4]oxazine-8-carboxylic acid [(R)-1-(3-chloro-4-cyano-phenyl)-propyl]-amide]	> 10	24	100	–

Source: patent EP2809669B1, “FUSED PYRROLEDICARBOXAMIDES AND THEIR USE AS PHARMACEUTICALS” (SANOFI, priority 2012, dated 2013)
